Measured values taken from paper PMC6449356 (Scientific Reports, 2019).
≈ marks a conversion by molar mass, not a printed value. Read-outs that look alike come from different tables or passages of the source.

Experiments:
[1] = tested on: S. aureus linezolid-nonsusceptible strains carrying cfr (12); experiment: MIC50/MIC90, broth microdilution (CLSI), strain panel; assay type: cell-based, Staphylococcus aureus; conditions: linezolid-nonsusceptible S. aureus carrying cfr (12 strains)
Description: (§1) resistance mechanisms using broth microdilution methods (CLSI).
(§2) Cadazolid Lin e zolid Vancom yc in
(§3) lin e zolid-nonsusceptible (26**)
(§4) * The 12 tested wild-type control strains include methicillin [oxacillin]-resistant [MRSA]
(§5) strains [41.7%] from JMI Laboratories (North Liberty, Iowa).
(§6) ** The 26 clinical strains tested included 12 cfr-positive and 14 23S rRNA mutants [G2576U].

[2] = tested on: S. aureus wild-type strains (12); experiment: as above; assay type: cell-based, Staphylococcus aureus; conditions: wild-type S. aureus (12 strains)
Description: as §1, §2, §3, §4, §5, §6

[3] = tested on: S. aureus linezolid-nonsusceptible G2576U mutants (14); experiment: as above; assay type: cell-based, Staphylococcus aureus; conditions: linezolid-nonsusceptible S. aureus G2576U mutants (14 strains)
Description: as §1, §2, §3, §4, §5, §6

[4] = tested on: cell-free extract from S. aureus ATCC 29213 (coupled transcription/translation); experiment: In vitro transcription/translation (IVTT) assay, S. aureus wt extract; assay type: biochemical, Staphylococcus aureus; conditions: S. aureus ATCC 29213 extract, average value and range of three independent experiments
Experimental: (§7) The cell-free protein synthesis reactions were carried out based on a procedure published for E. coli[37] and adapted for S. aureus as described previously for C. difficile. To improve expression from extracts derived from S. aureus, the firefly luciferase reporter gene was resynthesized with codons optimized for S. aureus at GeneArt AG (Regensburg, Germany) and cloned into plasmid pSP-luc_NF Fusion (Promega), replacing the existing luciferase gene. In addition, a 180-bp-long BglII-HindIII promoter fragment of gene abrB310 derived from Clostridium acetobutylicum was synthesized and cloned upstream of the codon-optimized luciferase gene for efficient translation, leading to plasmid pSPAbrlac-luc_Saur. S. aureus bacterial extracts were prepared according to a simplified E. coli procedure using a FastPrep®-24 instrument from Lucerna Chem AG (Cat No. 6004-500) and lysing matrix B (Lucerna Chem, Cat No. 116911100; silica spheres < 100 µm).
(§8) Test compounds diluted in 8% DMSO were added to reaction buffer containing bacterial extract and SP6 RNA polymerase, yielding final concentrations of 100, 20, 4, 0.8, 0.16, 0.04, 0.008, 0.0016, and 0 µM. Samples were mixed and pre-incubated for 10 min at RT before 100 ng plasmid pBestluc (E. coli) or 500 ng plasmid pSPAbrlac-luc_Saur (S. aureus) was added. After mixing, the plate was incubated at RT for 90 min. The luminescence was immediately measured after addition of the luciferase substrate Bright Glo (Promega, E2610) using a Tecan SpectralFluor Plus Reader (GeniosPro) instrument (parameters: integration time 1000 ms; intensity normal). Fifty percent inhibitory concentrations (IC50s) were calculated from the data.

E. coli MG1655 tolC::kan = experiment: MIC, micro dilution (CLSI); assay type: cell-based; conditions: Escherichia coli
Experimental: (§9) The MICs were determined using the micro dilution method recommended by the Clinical and Laboratory Standards Institute (CLSI).

S. aureus ATCC 29213 = experiment: MIC, micro dilution (CLSI); assay type: cell-based; conditions: Staphylococcus aureus, ATCC29213, median value of at least 3 determinations
Experimental: as §9

E. coli ATCC 25922 = experiment: MIC, micro dilution (CLSI); assay type: cell-based; conditions: Escherichia coli, ATCC25922
Experimental: as §9

S. aureus S1 LZD^R = experiment: MIC, micro dilution (CLSI); assay type: cell-based; conditions: Staphylococcus aureus
Experimental: as §9

[5] = tested on: cell-free extract from S. aureus S1 (LZD^R, homozygous G2576U in 23S rRNA); experiment: In vitro transcription/translation (IVTT) assay, S. aureus S1 LZD-resistant extract; assay type: biochemical, Staphylococcus aureus; conditions: average value and range of three independent experiments
Experimental: as §7, with “S. aureus bacterial extracts were prepared according to a simplified E. coli procedure using a FastPrep®-24 instrument from Lucerna Chem AG (Cat No. 6004-500) and lysing matrix B (Lucerna Chem, Cat No. 116911100; silica spheres < 100 µm).” left out
as §8, with “Samples were mixed and pre-incubated for 10 min at RT before 100 ng plasmid pBestluc (E. coli) or 500 ng plasmid pSPAbrlac-luc_Saur (S. aureus) was added. After mixing, the plate was incubated at RT for 90 min.” left out

[6] = tested on: cell-free extract from E. coli ATCC 25922 (coupled transcription/translation); experiment: In vitro transcription/translation (IVTT) assay, E. coli extract; assay type: biochemical, Escherichia coli; conditions: E. coli ATCC 25922 extract; average value and range of three independent experiments
[7] = tested on: cell-free extracts from E. coli and from S. aureus linezolid-susceptible and -resistant strains; experiment: In vitro translation in cell-free extracts, summary over the three extracts; assay type: biochemical; conditions: range over extracts from E. coli and S. aureus linezolid-susceptible and -resistant strains
Experimental: as §7, with “S. aureus bacterial extracts were prepared according to a simplified E. coli procedure using a FastPrep®-24 instrument from Lucerna Chem AG (Cat No. 6004-500) and lysing matrix B (Lucerna Chem, Cat No. 116911100; silica spheres < 100 µm).” left out
as §8, with “Samples were mixed and pre-incubated for 10 min at RT before 100 ng plasmid pBestluc (E. coli) or 500 ng plasmid pSPAbrlac-luc_Saur (S. aureus) was added. After mixing, the plate was incubated at RT for 90 min.” left out

**Q.** How did the MIC50 [1] turn out when O=C(O)c1cn(C2CC2)c2cc(N3CCC(O)(COc4ccc(N5C[C@H](CO)OC5=O)cc4F)CC3)c(F)cc2c1=O [Cadazolid] was run?
**A.** 0.25

**Q.** And the MIC90 [1]?
**A.** 0.5

**Q.** And the MIC50 [2]?
**A.** 0.25

**Q.** What about the MIC90 [2] of the same compound?
**A.** 0.25

**Q.** What about the MIC50 [3] of the same compound?
**A.** 0.5

**Q.** What about the MIC90 [3] of the same compound?
**A.** 0.5

**Q.** What about the IC50 [4] of the same compound?
**A.** 0.32 µM

**Q.** And the MIC (E. coli MG1655 tolC::kan)?
**A.** ≤ 0.063 mg/L

**Q.** What about the MIC (S. aureus ATCC 29213) of the same compound?
**A.** 0.5 mg/L (≈ 0.854 µM)

**Q.** And the MIC (E. coli ATCC 25922; E. coli ATCC 25922, median value of at least 3 determinations, read-out: MIC)?
**A.** 8 mg/L (≈ 13.7 µM)

**Q.** And the MIC (S. aureus S1 LZD^R)?
**A.** 1 mg/L (≈ 1.71 µM)

**Q.** What about the IC50 [5] of the same compound?
**A.** 0.33 µM

**Q.** What about the IC50 [6] of the same compound?
**A.** 0.24 µM

**Q.** What about the IC50 [7] of the same compound?
**A.** 0.24 to 0.33 µM

**Q.** How did the MIC50 [1] turn out when CC(=O)NC[C@H]1CN(c2ccc(N3CCOCC3)c(F)c2)C(=O)O1 [Linezolid] was run?
**A.** 8

**Q.** What about the MIC90 [1] of the same compound?
**A.** 8

**Q.** And the MIC50 [2]?
**A.** 1

**Q.** What about the MIC90 [2] of the same compound?
**A.** 1

**Q.** And the MIC50 [3]?
**A.** 8

**Q.** And the MIC90 [3]?
**A.** 16

**Q.** And the IC50 [4]?
**A.** 2.61 µM

**Q.** What about the IC50 ([4]; listed as LZD) of the same compound?
**A.** 2.6 µM

**Q.** And the MIC (E. coli MG1655 tolC::kan)?
**A.** 8 mg/L (≈ 23.7 µM)

**Q.** And the MIC (S. aureus ATCC 29213)?
**A.** 2 mg/L (≈ 5.93 µM)

**Q.** What about the MIC (E. coli ATCC 25922) of the same compound?
**A.** > 32 mg/L

**Q.** And the MIC (S. aureus S1 LZD^R)?
**A.** 32 mg/L (≈ 94.9 µM)

**Q.** What about the IC50 [5] of the same compound?
**A.** 7.03 µM

**Q.** And the IC50 [6]?
**A.** 4.03 µM

**Q.** With CN[C@H](CC(C)C)C(=O)N[C@H]1C(=O)N[C@@H](CC(N)=O)C(=O)N[C@H]2C(=O)N[C@H]3C(=O)N[C@H](C(=O)N[C@H](C(=O)O)c4cc(O)cc(O)c4-c4cc3ccc4O)[C@H](O)c3ccc(c(Cl)c3)Oc3cc2cc(c3O[C@@H]2O[C@H](CO)[C@@H](O)[C@H](O)[C@H]2O[C@H]2C[C@](C)(N)[C@H](O)[C@H](C)O2)Oc2ccc(cc2Cl)[C@H]1O [Vancomycin] as the compound, how does the MIC50 [1] read?
**A.** 0.5

**Q.** And the MIC90 [1]?
**A.** 1

**Q.** And the MIC50 [2]?
**A.** 1

**Q.** And the MIC90 [2]?
**A.** 1

**Q.** What about the MIC50 [3] of the same compound?
**A.** 1

**Q.** What about the MIC90 [3] of the same compound?
**A.** 1
